Experimental data: patent publication US11696913B2, “Prolonged ectoparasite-controlling agent for animal” (MITSUI CHEMICALS AGRO, INC., priority 2017, dated 2023)
Like-named read-outs stand apart in the source and are kept apart here.

Experiments:
[1] = system: Ctenocephalides felis; assay: Systemic treatment in-vivo test with cat flea on rats; conditions: Ctenocephalides felis, ip, intraperitoneal injection, 5 mg/kg
Protocol: Systemic Treatment In-Vivo Test with American Dog Tick Nymph and Cat Flea on Rats
Type of study and overall study design: The method is a randomized non-blinded efficacy study in accordance with European animal welfare requirements. Rats (Rattus norvegicus) were randomized based on pre-treatment flea counts. The efficacy of treatment was determined by comparison of the flea and tick counts of different treatment groups versus the placebo-treated control group. The experimental unit was the individual study animal. Method and route of administration: The compound was applied in a suitable solvent and carrier (more specifically, added to glycerol formal; in case of poorly soluble compounds, a solvent mixture with up to 25% by volume of N-methyl pyrrolidone may be used.) considering the individual body weight as an intraperitoneal injection.
Experimental infestation: On the day of treatment and weekly thereafter, 30 ticks (D. variabilis nymphs) were released onto the back of each rat, and 30 fleas (C. felis) were released onto the back of each rat 24 h later.
Tick and Flea counting: Rats were thoroughly examined and ticks and fleas were manually removed 48 h (±4 h) after tick infestation and 24 h after flea infestation. Live fleas and live attached engorged ticks were counted. In non-evident cases, engorgement status was evaluated by squeezing the tick on a filter paper to find traces of blood as sign for engorgement.

[2] = system: Rhipicephalus (Boophilus) microplus; assay: In vitro injection test with Rhipicephalus (Boophilus) microplus (BOOPMI Inj); conditions: 168 h, laid fertile eggs after 7 days, read-out: acaricidal activity; for pest or weed control at 0.00016 mg: dose 0.16 μg/animal injected; for pest or weed control at 0.0008 mg: dose 0.8 μg/animal injected
Method in brief: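 Five engorged adult females each get a 1 μl abdominal injection of compound dissolved and diluted in DMSO. Kept 7 days at 28° C./85% rel. hum.; percent activity rates egg laying and egg fertility (0% all fertile, 100% none laid or infertile).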

[3] = system: Ctenocephalides felis; assay: Ctenocephalides felis in-vitro feeding test with fleas (CTECFE oral); conditions: 48 hours, read-out: insecticidal feeding activity; for pest or weed control at 0.16 ppm: dose 0.16 ppm in citrated cattle blood; for pest or weed control at 0.8 ppm: dose 0.8 ppm in citrated cattle blood; for pest or weed control at 4 ppm: dose 4 ppm in citrated cattle blood
Method in brief: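 Scored as percent fleas killed (0–100%) 48 hours after feeding began. Compound, dissolved in DMSO and diluted into citrated cattle blood, was offered via a parafilm membrane to roughly 20 adult male and female C. felis at about 37° C.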

[4] = system: Spodoptera litura; assay: Insecticidal testing against common cutworm; type: in vivo; conditions: foliar, 144 h, concentration 100 ppm, cabbage leaf dip, second-stage larvae, after 6 days, read-out: pesticidal rate
Excerpt: Insecticidal Testing Against Common Cutworm (Spodoptera litura)

[5] = system: Plutella xylostella; assay: Insecticidal testing against diamondback moth; type: in vivo; conditions: foliar, 144 h, concentration 100 ppm, cabbage leaf dip, third-stage larvae, after 6 days, read-out: pesticidal rate
Excerpt: Insecticidal Testing Against Diamondback Moth (Plutella xylostella)

[6] = system: Ctenocephalides felis; assay: In vitro contact test with fleas; conditions: read-out: insecticidal activity; for pest or weed control at 0.2 µg/cm2, 0.2 µg/cm2: dose 0.2 μg/cm^2, dead or moribund fleas after 48 h; for pest or weed control at 1 µg/cm2, 1 µg/cm2: dose 1 μg/cm^2, dead or moribund fleas after 48 h
Method in brief: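 Activity is the percentage of fleas dead or moribund at 48 h, judged by immobility or uncoordinated movement after tapping. Tubes were coated by evaporating acetone solutions (900 ppm gives 5 μg/cm^2), then held 5-10 adult fleas of both sexes at room temperature and ambient humidity.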

[7] = system: Laodelphax striatellus; assay: Insecticidal testing against small brown planthopper; type: in vivo; conditions: 144 h, concentration 100 ppm, sprayed rice seedlings, after 6 days, read-out: pesticidal rate
Protocol: Insecticidal Testing Against Small Brown Planthopper (Laodelphax striatellus)
An additional test was carried out with 10 small brown planthoppers by preparing an acetone solution of the testing compound diluted to a predetermined concentration, spraying the solution onto rice seedlings and air drying the rice seedlings. The medicament was all used as received. The rice seedlings were placed in a constant-temperature room at 25° C., and the survival rate was investigated after 6 days. The test was carried out by means of one group of 10 pests.

Structure (SMILES)	inhibition in vivo at 5 mg/kg ([1]; SD 2, read-out: Geometric mean percent reduction in live flea (Ctenocephalides felis) counts compared to untreated control rats)	inhibition in vivo at 5 mg/kg ([1]; SD 9, read-out: Geometric mean percent reduction in live flea (Ctenocephalides felis) counts compared to untreated control rats)	inhibition in vivo at 5 mg/kg ([1]; SD 16, read-out: Geometric mean percent reduction in live flea (Ctenocephalides felis) counts compared to untreated control rats)	inhibition in vivo at 5 mg/kg ([1]; SD 23, read-out: Geometric mean percent reduction in live flea (Ctenocephalides felis) counts compared to untreated control rats)	inhibition in vivo at 5 mg/kg ([1]; SD 30, read-out: Geometric mean percent reduction in live flea (Ctenocephalides felis) counts compared to untreated control rats)	pest or weed control at 0.00016 mg [2]	pest or weed control at 0.0008 mg [2]	pest or weed control at 0.16 ppm [3]	pest or weed control at 0.8 ppm [3]	pest or weed control at 4 ppm [3]	pest or weed control at 100 ppm [4]	pest or weed control at 100 ppm [5]	pest or weed control at 0.2 µg/cm2, 0.2 µg/cm2 [6]	pest or weed control at 1 µg/cm2, 1 µg/cm2 [6]	pest or weed control at 100 ppm [7]	pest or weed control at 0.04 µg/cm2, 0.04 µg/cm2 ([6]; dose 0.04 μg/cm^2, dead or moribund fleas after 48 h)	pest or weed control at 0.0064 ppm ([3]; dose 0.0064 ppm in citrated cattle blood)	pest or weed control at 0.032 ppm ([3]; dose 0.032 ppm in citrated cattle blood)
CCN(C(=O)c1ccc(F)cc1)c1cccc(C(=O)Nc2c(I)cc(C(F)(C(F)(F)F)C(F)(F)F)cc2C(F)(F)F)c1F [Compound 43]	100%	99%	90%	91%	13%	–	–	–	–	–	–	–	–	–	–	–	–	–
CN(C(=O)c1ccc(S(N)(=O)=O)cc1)c1cccc(C(=O)Nc2c(I)cc(C(F)(C(F)(F)F)C(F)(F)F)cc2C(F)(F)F)c1F [Compound 45]	–	–	–	–	–	100%	100%	95%	95%	95%	≥ 70%	≥ 70%	–	–	–	–	–	–
CC(C)c1ccc(C(=O)N(C)c2cccc(C(=O)Nc3c(I)cc(C(F)(C(F)(F)F)C(F)(F)F)cc3C(F)(F)F)c2F)cc1 [Compound 47]	–	–	–	–	–	–	100%	–	–	95%	≥ 70%	≥ 70%	95%	95%	≥ 70%	–	–	–
CN(C(=O)c1ccc(C(N)=O)cc1)c1cccc(C(=O)Nc2c(I)cc(C(F)(C(F)(F)F)C(F)(F)F)cc2C(F)(F)F)c1F [Compound 48]	–	–	–	–	–	100%	100%	95%	95%	95%	≥ 70%	≥ 70%	–	95%	–	–	–	–
CN(C(=O)c1ccc(S(C)(=O)=O)cc1)c1cccc(C(=O)Nc2c(I)cc(C(F)(C(F)(F)F)C(F)(F)F)cc2C(F)(F)F)c1F [Compound 49]	–	–	–	–	–	100%	100%	95%	95%	95%	≥ 70%	≥ 70%	95%	95%	≥ 70%	95%	95%	95%
COc1ccc(C(=O)N(C)c2cccc(C(=O)Nc3c(I)cc(C(F)(C(F)(F)F)C(F)(F)F)cc3C(F)(F)F)c2F)cc1OC [Compound 50]	–	–	–	–	–	–	–	–	–	95%	≥ 70%	≥ 70%	–	–	–	–	–	–
CN(C(=O)c1ccc2c(c1)CCCC2)c1cccc(C(=O)Nc2c(I)cc(C(F)(C(F)(F)F)C(F)(F)F)cc2C(F)(F)F)c1F [Compound 52]	–	–	–	–	–	–	100%	–	–	95%	≥ 70%	≥ 70%	–	95%	–	–	–	–
